Laboratory results: ChEMBL document CHEMBL1201862, “PubChem BioAssay data set” (2004)
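Each compound was tested at five concentrations against cells in 96-well plates for 48 hours. GI50 = concentration required for 50% inhibition of growth.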 Activity calls are given as the source filed them. Cut-off read from the data, not from the text of the source: active = GI50 up to about 1.1 µM and inactive = higher.

Columns and labels:
Assay in all cases: NCI anticancer screen, dose series, 48 h
[1] = tested on: UACC-257
[2] = tested on: BT-549
[3] = tested on: SF-539
[4] = tested on: EKVX
[5] = tested on: SW-620
[6] = tested on: NCI/ADR-RES
[7] = tested on: NCI-H522
[8] = tested on: PC-3
[9] = tested on: SNB-75
[10] = tested on: LOX IMVI
[11] = tested on: MCF7
[12] = tested on: U-251
[13] = tested on: SF-295
[14] = tested on: CCRF-CEM
[15] = tested on: RXF 393
[16] = tested on: HT-29
[17] = tested on: OVCAR-5
[18] = tested on: K562
[19] = tested on: MOLT-4
[20] = tested on: IGROV-1

| SMILES | GI50 [1] | GI50 [2] | GI50 [3] | GI50 [4] | GI50 [5] | GI50 [6] | GI50 [7] | GI50 [8] | GI50 [9] | GI50 [10] | GI50 [11] | GI50 [12] | GI50 [13] | GI50 [14] | GI50 [15] | GI50 [16] | GI50 [17] | GI50 [18] | GI50 [19] | GI50 [20] |
| --- | --- | --- | --- | --- | --- | --- | --- | --- | --- | --- | --- | --- | --- | --- | --- | --- | --- | --- | --- | --- |
| O=[N+]([O-])c1ccc2[nH]ncc2c1Cl | 31.2 µM (inactive) | 38.5 µM (inactive) | 36.7 µM (inactive) | 20.6 µM (inactive) | 31.6 µM (inactive) | 26.5 µM (inactive) | 3.74 µM (inactive) | 29.6 µM (inactive) | 35.9 µM (inactive) | 17.5 µM (inactive) | 41.7 µM (inactive) | 42.5 µM (inactive) | 86.3 µM (inactive) | 46 µM (inactive) | 42.8 µM (inactive) | 17.9 µM (inactive) | 23.6 µM (inactive) | 18.3 µM (inactive) | 22.8 µM (inactive) | 18 µM (inactive) |
| COC(=O)CCC(=O)NC1=C(NCc2ccccc2)C(=O)c2ccccc2C1=O | 16.6 µM (inactive) | 46.7 µM (inactive) | 20.1 µM (inactive) | 32.9 µM (inactive) | 19.9 µM (inactive) | 29.3 µM (inactive) | 19.1 µM (inactive) | 25.2 µM (inactive) | 78.2 µM (inactive) | 21.8 µM (inactive) | 17.3 µM (inactive) | 28.9 µM (inactive) | 26.7 µM (inactive) | 35.8 µM (inactive) | 34.7 µM (inactive) | 25.7 µM (inactive) | 29.5 µM (inactive) | 33.9 µM (inactive) | 34 µM (inactive) | 17.7 µM (inactive) |
| S=C(N/N=C(/c1ccccc1)c1ccccn1)N(Cc1ccccn1)Cc1ccccn1 | 0.0425 µM (active) | 0.207 µM (active) | 0.119 µM (active) | 0.0608 µM (active) | < 0.0277 µM (active) | 0.0838 µM (active) | < 0.0247 µM (active) | 0.0541 µM (active) | 0.708 µM (active) | 0.0908 µM (active) | < 0.01 µM (active) | < 0.016 µM (active) | 0.367 µM (active) | < 0.01 µM (active) | 1 µM (active) | < 0.01 µM (active) | 0.427 µM (active) | < 0.01 µM (active) | < 0.0302 µM (active) | < 0.01 µM (active) |
| CC(C)(C)C1=CC(=C2C=Cc3ccccc3O2)C=C(C(C)(C)C)C1=O | 3.61 µM (inactive) | 6.59 µM (inactive) | 7.05 µM (inactive) | 6.59 µM (inactive) | 2.84 µM (inactive) | 3.81 µM (inactive) | 3.53 µM (inactive) | 4.09 µM (inactive) | 5.55 µM (inactive) | 3.06 µM (inactive) | 1.86 µM (inactive) | 2.46 µM (inactive) | 5.33 µM (inactive) | 2.09 µM (inactive) | 2.25 µM (inactive) | 3.76 µM (inactive) | 6.7 µM (inactive) | 3.94 µM (inactive) | 1.73 µM (inactive) | 6.53 µM (inactive) |
| C=CCc1c(C)nc(C)nc1N/N=C/C=C/c1ccccc1 | 14.4 µM (inactive) | 23.8 µM (inactive) | 32.1 µM (inactive) | 17.6 µM (inactive) | 51.8 µM (inactive) | 23.9 µM (inactive) | 28.2 µM (inactive) | 34.9 µM (inactive) | 21.9 µM (inactive) | 39.1 µM (inactive) | 23.6 µM (inactive) | 23.6 µM (inactive) | 19.5 µM (inactive) | 44 µM (inactive) | 4.06 µM (inactive) | 30.8 µM (inactive) | 99.5 µM (inactive) | 23.3 µM (inactive) | 22.4 µM (inactive) | 31.4 µM (inactive) |
| O=C(NCCO)c1c(O)c2ccccc2[nH]c1=O | > 100 µM (inactive) | > 100 µM (inactive) | > 100 µM (inactive) | 69.5 µM (inactive) | > 100 µM (inactive) | > 100 µM (inactive) | > 100 µM (inactive) | > 100 µM (inactive) | > 100 µM (inactive) | > 100 µM (inactive) | > 100 µM (inactive) | > 100 µM (inactive) | > 100 µM (inactive) | > 100 µM (inactive) | > 100 µM (inactive) | > 100 µM (inactive) | > 100 µM (inactive) | > 100 µM (inactive) | > 100 µM (inactive) | > 100 µM (inactive) |
| CC[C@]12C=CCN3CC[C@@]4(c5cc(Br)c(OC)cc5N(C)[C@H]4[C@@](O)(C(=O)NN)[C@@H]1O)[C@@H]32 | 55 µM (inactive) | 36.1 µM (inactive) | 30.5 µM (inactive) | 59.4 µM (inactive) | > 100 µM (inactive) | > 100 µM (inactive) | 52.2 µM (inactive) | 28.1 µM (inactive) | 18.2 µM (inactive) | 65.6 µM (inactive) | 30.3 µM (inactive) | 52 µM (inactive) | 65.5 µM (inactive) | 38 µM (inactive) | 22.5 µM (inactive) | > 100 µM (inactive) | > 100 µM (inactive) | 48.2 µM (inactive) | 26.7 µM (inactive) | 87.1 µM (inactive) |
| CCOC(=O)C1=C(C)N(Cc2ccc(Cl)cc2Cl)C2(O)C(OC)CC(=O)C3C(=O)N(c4ccccc4)C(=O)C132 (stereo not given) | 3.52 µM (inactive) | 1.61 µM (inactive) | 2.86 µM (inactive) | 3.4 µM (inactive) | 2.52 µM (inactive) | 2.01 µM (inactive) | 2.01 µM (inactive) | 2.64 µM (inactive) | < 0.01 µM (active) | 1.05 µM (active) | 1.91 µM (inactive) | 1.5 µM (inactive) | 4.43 µM (inactive) | 0.466 µM (active) | 1.11 µM (active) | 1.75 µM (inactive) | 2.41 µM (inactive) | 1.11 µM (active) | 1.79 µM (inactive) | 4.34 µM (inactive) |
| C[C@]12CC[C@H]3[C@@H](CC=C4C[C@@H](O)CC[C@@]43C)[C@@H]1C[C@H](N1CCOCC1)[C@@H]2O | > 100 µM (inactive) | 27.9 µM (inactive) | 40 µM (inactive) | > 100 µM (inactive) | > 100 µM (inactive) | > 100 µM (inactive) | > 100 µM (inactive) | > 100 µM (inactive) | 28.4 µM (inactive) | > 100 µM (inactive) | > 100 µM (inactive) | 49.2 µM (inactive) | > 100 µM (inactive) | > 100 µM (inactive) | 52.4 µM (inactive) | 6.34 µM (inactive) | > 100 µM (inactive) | 68.4 µM (inactive) | > 100 µM (inactive) | > 100 µM (inactive) |
| CCCCCCCCCCOCCOCCOCCOCCCCC(O)CCCCCCCC1=C[C@H](C)OC1=O (stereo not given in full) | 9.14 µM (inactive) | 0.959 µM (active) | 12.1 µM (inactive) | 10.7 µM (inactive) | 12.1 µM (inactive) | 7.41 µM (inactive) | 6.34 µM (inactive) | 9.98 µM (inactive) | 11.8 µM (inactive) | 4.98 µM (inactive) | 5.62 µM (inactive) | 11.1 µM (inactive) | 9.89 µM (inactive) | 2.79 µM (inactive) | 10.9 µM (inactive) | 10.7 µM (inactive) | 15.7 µM (inactive) | 4.02 µM (inactive) | 2.83 µM (inactive) | 14.4 µM (inactive) |
| CC(CN1CC(=O)NC(=O)C1)N1CC(=O)NC(=O)C1 (stereo not given) [RAZOXANE] | 535 µM (inactive) | 385 µM (inactive) | 332 µM (inactive) | 209 µM (inactive) | 54.7 µM (inactive) | 243 µM (inactive) | 90.8 µM (inactive) | 66.1 µM (inactive) | 306 µM (inactive) | 212 µM (inactive) | 33.2 µM (inactive) | 201 µM (inactive) | 127 µM (inactive) | 35.5 µM (inactive) | 473 µM (inactive) | 119 µM (inactive) | 343 µM (inactive) | 188 µM (inactive) | 34.9 µM (inactive) | 289 µM (inactive) |
